Results as given in patent US6376710B2, “Amidine compounds and their use as pesticides” (Sumitomo Chemical Co., Ltd., priority 2000, dated 2002).

Assays:
Type in all cases: in vivo
[1] = tested on: German cockroach (Blattella germanica); assay: Test Example 2: treated filter paper with sucrose bait, German cockroach male adults, mortality; conditions: 144 h
[2] = tested on: house fly (Musca domeestica); assay: Test Example 3: treated filter paper with sucrose bait, house fly female adults, mortality; conditions: 24 h
Protocol: On the bottom of a polyethylene cup of 5.5 cm in diameter was placed a filter paper of the same size, to which a water dilution (500 ppm) of each of the formulations obtained from present compounds 1, 2, 3, 4, 5, 6, 7, 8, 9, 10, 11, 12, 13, 14, 15, 16, 17, 18, 19, 20, 21, 25, 26, 27, 28, 29, 32, 33, 34, 35, 36, 37, 38, 39, 40, 41, 42, 43, 44, 45, 47, 51, 52, 53, 54, 55, 60, and 61 according to Formulation Example 1 was added dropwise in an amount of 0.7 ml, and the cup was uniformly charged with about 30 mg of sucrose as a bait. Ten female adults of house fly (Musca domeestica) were set free in each cup, which was then kept covered. After 1 day, their survival was examined to determine the mortality.

[3] = tested on: common mosquito (Culex pipiens pallens); assay: Test Example 4: treated water, common mosquito final-instar larvae, mortality; conditions: 192 h

NC(=Nc1c(Br)cc(OC(F)(F)F)cc1Br)C(F)(F)C(F)(F)F [present compound 16, N-(2,6-Dibromo-4-trifluoromethoxyphenyl)-2,2,3,3,3-pentafluoropropionamidine]
100%: mortality at 500 µg/mL [1] | mortality at 500 µg/mL [2] | mortality at 3.5 ppm [3]

NC(=Nc1c(F)cc(C(F)(F)F)cc1Cl)C(F)(F)F [present compound 13, N-(2-Chloro-6-fluoro-4-trifluoromethylphenyl)-2,2,2-trifluoroacetamidine]
100%: mortality at 500 µg/mL [1] | mortality at 500 µg/mL [2] | mortality at 3.5 ppm [3]

NC(=Nc1c([N+](=O)[O-])cc(OC(F)(F)F)cc1[N+](=O)[O-])C(F)(F)C(F)(F)C(F)(F)F [present compound 45, N-(2,6-Dinitro-4-trifluoromethoxyphenyl)-2,2,3,3,4,4,4-heptafluorobutyramidine]
100%: mortality at 500 µg/mL [1] | mortality at 500 µg/mL [2] | mortality at 3.5 ppm [3]

NC(=Nc1c(Cl)cc(OC(F)(F)F)cc1Cl)C(F)(F)C(F)(F)F [present compound 18, N-(2,6-Dichloro-4-trifluoromethoxyphenyl)-2,2,3,3,3-pentafluoropropionamidine]
100%: mortality at 500 µg/mL [1] | mortality at 500 µg/mL [2] | mortality at 3.5 ppm [3]

CN(C)C(=Nc1c(Cl)cc(C(F)(F)F)cc1Cl)C(F)(F)Cl [present compound 54, 2-Chloro-N′-(2,6-dichloro-4-trifluoromethylphenyl)-2,2-difluoro-N,N-dimethylacetamidine]
100%: mortality at 500 µg/mL [1] | mortality at 500 µg/mL [2] | mortality at 3.5 ppm [3]

CC(F)(F)C(N)=Nc1c([N+](=O)[O-])cc(C(F)(F)F)cc1[N+](=O)[O-] [present compound 36, 2,2-Difluoro-N-(2,6-dinitro-4-trifluoromethylphenyl)propionamidine]
100%: mortality at 500 µg/mL [1] | mortality at 500 µg/mL [2] | mortality at 3.5 ppm [3]

NC(=Nc1c([N+](=O)[O-])cc(C(F)(F)F)cc1[N+](=O)[O-])C(F)(F)Cl [present compound 28, 2-Chloro-2,2-difluoro-N-(2,6-dinitro-4-trifluoromethylphenyl)acetamidine]
100%: mortality at 500 µg/mL [1] | mortality at 500 µg/mL [2] | mortality at 3.5 ppm [3]

NC(=Nc1c([N+](=O)[O-])cc(C(F)(F)F)cc1[N+](=O)[O-])C(F)(F)C(F)(Cl)C(F)(F)Cl (stereo not drawn) [present compound 37, 3,4-Dichloro-N-(2,6-dinitro-4-trifluoromethylphenyl)-2,2,3,4,4-pentafluorobutyramidine]
100%: mortality at 500 µg/mL [1] | mortality at 500 µg/mL [2] | mortality at 3.5 ppm [3]

CN(C)C(=Nc1c(Cl)cc(C(F)(F)F)cc1Cl)C(F)(F)C(F)(F)F [present compound 53, N′-(2,6-Dichloro-4-trifluoromethylphenyl)-2,2,3,3,3-pentafluoro-N,N-dimethylpropionamidine]
100%: mortality at 500 µg/mL [1] | mortality at 500 µg/mL [2] | mortality at 3.5 ppm [3]

NC(=Nc1c([N+](=O)[O-])cc(C(F)(F)F)cc1[N+](=O)[O-])C(F)(F)Br [present compound 25, 2-Bromo-2,2-difluoro-N-(2,6-dinitro-4-trifluoromethylphenyl) acetamidine]
100%: mortality at 500 µg/mL [1] | mortality at 500 µg/mL [2] | mortality at 3.5 ppm [3]

NC(=Nc1c([N+](=O)[O-])cc(C(F)(F)F)cc1[N+](=O)[O-])C(F)(Cl)C(F)(F)Br (stereo not drawn) [present compound 40, 3-Bromo-2-chloro-N-(2,6-dinitro-4-trifluoromethylphenyl)-2,3,3-trifluoropropionamidine]
100%: mortality at 500 µg/mL [1] | mortality at 500 µg/mL [2] | mortality at 3.5 ppm [3]

Cc1cc(C(F)(F)F)cc(Cl)c1N=C(N)C(F)(F)C(F)(F)F [present compound 15, N-(2-Chloro-6-methyl-4-trifluoromethylphenyl)-2,2,3,3,3-pentafluoropropionamidine]
100%: mortality at 500 µg/mL [1] | mortality at 500 µg/mL [2] | mortality at 3.5 ppm [3]

COC(F)(C(N)=Nc1c([N+](=O)[O-])cc(C(F)(F)F)cc1[N+](=O)[O-])C(F)(F)F (stereo not drawn) [present compound 41, N-(2,6-Dinitro-4-trifluoromethylphenyl)-2-methoxy-2,3,3,3-tetrafluoropropionamidine]
100%: mortality at 500 µg/mL [1] | mortality at 500 µg/mL [2] | mortality at 3.5 ppm [3]

NC(=Nc1c([N+](=O)[O-])cc(C(F)(F)C(F)(F)C(F)(F)F)cc1[N+](=O)[O-])C(F)(F)C(F)(F)F [present compound 47, N-(2,6-Dinitro-4-heptafluoropropylphenyl)-2,2,3,3,3-pentafluoropropionamidine]
100%: mortality at 500 µg/mL [1] | mortality at 500 µg/mL [2] | mortality at 3.5 ppm [3]

NC(=Nc1c([N+](=O)[O-])cc(C(F)(F)F)cc1[N+](=O)[O-])C(F)(F)C(F)F [present compound 26, N-(2,6-Dinitro-4-trifluoromethylphenyl)-2,2,3,3-tetrafluoropropionamidine]
100%: mortality at 500 µg/mL [1] | mortality at 500 µg/mL [2] | mortality at 3.5 ppm [3]

NC(=Nc1c([N+](=O)[O-])cc(C(F)(F)C(F)(F)F)cc1[N+](=O)[O-])C(F)(F)C(F)(F)C(F)(F)F [present compound 42, N-(2,6-Dinitro-4-pentafluoroethylphenyl)-2,2,3,3,4,4,4-heptafluorobutyramidine]
100%: mortality at 500 µg/mL [1] | mortality at 500 µg/mL [2] | mortality at 3.5 ppm [3]

NC(=Nc1c(Cl)cc(C(F)(F)F)cc1[N+](=O)[O-])C(F)(F)C(F)(F)F [present compound 8, N-(2-Chloro-6-nitro-4-trifluoromethylphenyl)-2,2,3,3,3-pentafluoropropionamidine]
100%: mortality at 500 µg/mL [1] | mortality at 500 µg/mL [2] | mortality at 3.5 ppm [3]

NC(=Nc1c(F)cc(C(F)(F)F)cc1Cl)C(F)(F)C(F)(F)F [present compound 19, N-(2-Chloro-6-fluoro-4-trifluoromethylphenyl)-2,2,3,3,3-pentafluoropropionamidine]
100%: mortality at 500 µg/mL [1] | mortality at 500 µg/mL [2] | mortality at 3.5 ppm [3]

NC(=Nc1c(F)cc(C(F)(F)F)cc1F)C(F)(F)C(F)(F)F [present compound 9, N-(2,6-Difluoro-4-trifluoromethylphenyl)-2,2,3,3,3-pentafluoropropionamidine]
100%: mortality at 500 µg/mL [1] | mortality at 500 µg/mL [2] | mortality at 3.5 ppm [3]

NC(=Nc1c(Br)cc(C(F)(F)F)cc1[N+](=O)[O-])C(F)(F)C(F)(F)F [present compound 27, N-(2-Bromo-6-nitro-4-trifluoromethylphenyl)-2,2,3,3,3-pentafluoropropionamidine]
100%: mortality at 500 µg/mL [1] | mortality at 500 µg/mL [2] | mortality at 3.5 ppm [3]

NC(=Nc1c([N+](=O)[O-])cc(C(F)(F)F)cc1[N+](=O)[O-])C(F)(F)C(F)(F)C(F)(F)F [present compound 21, N-(2,6-Dinitro-4-trifluoromethylphenyl)-2,2,3,3,4,4,4-heptafluorobutyramidine]
100%: mortality at 500 µg/mL [1] | mortality at 500 µg/mL [2] | mortality at 3.5 ppm [3]
